Experimental data published in US9446039B2, “Aminoheteroaryl compounds as MTH1 inhibitors” (CEMM—FORSCHUNGSZENTRUM FÜR MOLEKULARE MEDIZIN GMBH, priority 2012, dated 2016).

What was measured:
Format in all cases: binding
[1] = target: T1, SW480 colon carcinoma cells lysate proteins (Homo sapiens, UniProt P51659); details: PreyGene HSD17B4
T1 sequence (P51659 1-736): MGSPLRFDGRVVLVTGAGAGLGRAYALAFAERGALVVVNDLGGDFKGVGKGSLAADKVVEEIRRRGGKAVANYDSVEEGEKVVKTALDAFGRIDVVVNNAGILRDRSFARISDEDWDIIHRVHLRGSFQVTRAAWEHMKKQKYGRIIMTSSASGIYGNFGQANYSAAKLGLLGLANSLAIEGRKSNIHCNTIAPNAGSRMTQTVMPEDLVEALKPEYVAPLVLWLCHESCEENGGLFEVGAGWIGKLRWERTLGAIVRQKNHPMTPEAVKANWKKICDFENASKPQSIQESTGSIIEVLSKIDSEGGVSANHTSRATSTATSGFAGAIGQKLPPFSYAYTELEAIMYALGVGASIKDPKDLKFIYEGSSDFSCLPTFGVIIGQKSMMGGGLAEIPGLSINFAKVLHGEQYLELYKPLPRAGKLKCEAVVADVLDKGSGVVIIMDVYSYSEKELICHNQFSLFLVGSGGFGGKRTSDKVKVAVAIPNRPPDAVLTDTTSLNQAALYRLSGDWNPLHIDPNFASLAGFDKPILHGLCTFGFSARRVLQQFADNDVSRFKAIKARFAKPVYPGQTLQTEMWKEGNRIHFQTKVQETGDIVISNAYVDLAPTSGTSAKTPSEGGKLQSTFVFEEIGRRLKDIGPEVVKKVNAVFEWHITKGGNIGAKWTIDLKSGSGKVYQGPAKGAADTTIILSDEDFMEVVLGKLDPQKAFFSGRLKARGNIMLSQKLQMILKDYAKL

[2] = target: SW480 colon carcinoma cells lysate proteins (Homo sapiens, UniProt Q9UHV9); details: PreyGene PFDN2
[3] = target: SW480 colon carcinoma cells lysate proteins (Homo sapiens, UniProt P23526); details: PreyGene AHCY
[4] = target: T2, SW480 colon carcinoma cells lysate proteins (Homo sapiens, UniProt Q04837); details: PreyGene SSBP1; SW480 cells
T2 sequence (Q04837 17-148): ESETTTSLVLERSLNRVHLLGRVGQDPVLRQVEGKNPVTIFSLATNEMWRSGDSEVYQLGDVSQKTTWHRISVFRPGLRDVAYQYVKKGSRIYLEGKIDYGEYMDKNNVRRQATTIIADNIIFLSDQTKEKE

[5] = target: T3, SW480 colon carcinoma cells lysate proteins (Homo sapiens, UniProt Q13126); details: PreyGene MTAP; SW480 cells
T3 sequence (Q13126 1-283): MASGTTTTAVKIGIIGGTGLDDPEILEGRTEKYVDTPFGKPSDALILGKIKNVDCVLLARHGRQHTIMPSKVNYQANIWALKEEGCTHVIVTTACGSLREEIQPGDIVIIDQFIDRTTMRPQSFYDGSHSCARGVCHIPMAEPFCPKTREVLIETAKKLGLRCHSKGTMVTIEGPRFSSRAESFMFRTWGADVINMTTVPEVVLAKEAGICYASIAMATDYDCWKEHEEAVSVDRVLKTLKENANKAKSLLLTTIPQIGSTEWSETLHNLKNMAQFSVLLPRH

[6] = target: T4, SW480 colon carcinoma cells lysate proteins (Homo sapiens, UniProt Q7RTS7); details: PreyGene KRT74; SW480 cells
T4 sequence (Q7RTS7 1-529): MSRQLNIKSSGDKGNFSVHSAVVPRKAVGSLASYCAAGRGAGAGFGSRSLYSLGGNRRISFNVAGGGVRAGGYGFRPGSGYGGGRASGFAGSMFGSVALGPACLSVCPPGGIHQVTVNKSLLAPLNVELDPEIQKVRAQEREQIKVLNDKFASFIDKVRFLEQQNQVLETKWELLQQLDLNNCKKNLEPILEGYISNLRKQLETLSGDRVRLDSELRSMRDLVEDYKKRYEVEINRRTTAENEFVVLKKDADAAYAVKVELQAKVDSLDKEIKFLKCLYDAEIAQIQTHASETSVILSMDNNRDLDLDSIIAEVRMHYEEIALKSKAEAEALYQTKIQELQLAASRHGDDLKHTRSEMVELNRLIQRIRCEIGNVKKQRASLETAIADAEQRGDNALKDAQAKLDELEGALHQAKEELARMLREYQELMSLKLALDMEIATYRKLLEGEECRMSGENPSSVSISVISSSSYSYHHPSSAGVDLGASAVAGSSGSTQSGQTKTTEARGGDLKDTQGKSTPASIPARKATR

[7] = target: SW480 colon carcinoma cells lysate proteins (Homo sapiens, UniProt O14602); details: PreyGene EIF1AY
Chain of SW480 colon carcinoma cells lysate proteins (Homo sapiens, UniProt O14602) (O14602 whole entry): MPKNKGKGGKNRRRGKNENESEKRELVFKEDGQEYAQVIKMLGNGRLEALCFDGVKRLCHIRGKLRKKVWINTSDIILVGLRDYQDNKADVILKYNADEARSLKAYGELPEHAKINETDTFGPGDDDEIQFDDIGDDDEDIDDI

Chain of SW480 colon carcinoma cells lysate proteins (Homo sapiens, UniProt Q9UHV9) (Q9UHV9 whole entry): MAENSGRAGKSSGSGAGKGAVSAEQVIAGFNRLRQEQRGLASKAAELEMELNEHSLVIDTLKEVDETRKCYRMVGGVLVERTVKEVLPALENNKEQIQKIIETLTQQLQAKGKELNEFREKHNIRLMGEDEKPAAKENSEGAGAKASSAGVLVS
Chain of SW480 colon carcinoma cells lysate proteins (Homo sapiens, UniProt P23526) (P23526 whole entry): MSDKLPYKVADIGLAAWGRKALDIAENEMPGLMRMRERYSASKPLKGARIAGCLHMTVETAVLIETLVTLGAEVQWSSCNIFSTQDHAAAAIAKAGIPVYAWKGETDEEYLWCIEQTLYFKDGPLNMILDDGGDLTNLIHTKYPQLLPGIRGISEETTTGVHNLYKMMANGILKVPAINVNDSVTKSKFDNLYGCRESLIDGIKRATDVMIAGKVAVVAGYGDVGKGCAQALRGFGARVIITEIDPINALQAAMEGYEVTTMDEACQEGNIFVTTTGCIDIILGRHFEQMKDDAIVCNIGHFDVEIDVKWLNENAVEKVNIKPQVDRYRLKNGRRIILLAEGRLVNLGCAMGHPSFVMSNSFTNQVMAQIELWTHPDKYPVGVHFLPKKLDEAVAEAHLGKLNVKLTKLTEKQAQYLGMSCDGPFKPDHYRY

## C[C@H](Oc1cc(-c2cnn(C3CCNCC3)c2)cnc1N)c1c(Cl)ccc(F)c1Cl [(5)-crizotinib]
[1]
  AvgP: 0.3179
  SC.Exp. 1-1: 2
  SC.Exp. 1-2: 3
  SC.Exp. 2-1: 0
  SC.Exp. 2-2: 0
  Sum (SC.Exp.): 5
[2]
  AvgP: 0.3862
  SC.Exp. 1-1: 2
  SC.Exp. 1-2: 2
  SC.Exp. 2-1: 0
  SC.Exp. 2-2: 0
  Sum (SC.Exp.): 4
[3]
  AvgP: 0.4716
  SC.Exp. 1-1: 4
  SC.Exp. 1-2: 4
  SC.Exp. 2-1: 0
  SC.Exp. 2-2: 0
  Sum (SC.Exp.): 8
[4]
  AvgP: 0
  SC.Exp. 1-1: 1
  SC.Exp. 1-2: 1
  SC.Exp. 2-1: 0
  SC.Exp. 2-2: 0
  SC.Exp. Sum: 2
[5]
  AvgP: 0
  SC.Exp. 1-1: 1
  SC.Exp. 1-2: 1
  SC.Exp. 2-1: 0
  SC.Exp. 2-2: 0
  SC.Exp. Sum: 2
[6]
  AvgP: 0
  SC.Exp. 1-1: 1
  SC.Exp. 1-2: 1
  SC.Exp. 2-1: 0
  SC.Exp. 2-2: 0
  SC.Exp. Sum: 2
[7]
  AvgP: 0.3949
  SC.Exp. 1-1: 2
  SC.Exp. 1-2: 3
  SC.Exp. 2-1: 0
  SC.Exp. 2-2: 0
  Sum (SC.Exp.): 5
